Reference: US9259433B2, “Synergistic antiviral compositions comprising a viral attachment inhibitor, an integration inhibitor, and a proviral transcription inhibitor, and their use” (priority 2007, dated 2016)
Read-outs that look alike come from different tables or passages of the source.

Assays:
HIV particles = assay: HIV-1 attachment to pre-cooled HeLa CD4+ cells, viral capsid in cell lysates; conditions: HeLa CD4+ cells at 4° C., 30-minute attachment, up to 20 μM
Description: To determine whether the two saponins act exclusively at the attachment step, target HeLa CD4^+ cells were initially pre-cooled at 4° C. before viral exposure to exclude the possibility of virus internalization. Each compound, at graded concentrations, was then mixed with HIV particles and added to target cells in cold media. After a 30-minute attachment period, the cells were profusely washed to remove unbound virus. […] H9 cells (4×10^5) were first incubated with compound and then infected with virus for one hour at 37° C. in CO2 incubator to permit virus fusion and entry. The cells were then centrifuged and washed 3 times with phosphate buffered saline (PBS) to remove the unbound virus as described previously (6,7). The viral entry was determined by p24 antigen-capture assay. For the drug effect on HIV-1 replication and infection, the culture was incubated for 8 days. Viral replication was determined by the amount of HIV-1 p24 antigen in culture supernatant after 8 days of virus infection in H9 cells using the HIV/p24 monoclonal antibody assay (8). […] Only low concentrations were used for testing to minimize the cellular toxicities of the drug.

wild type HIV-1 envelope = assay: HIV-based cell-cell fusion (syncytium) assay, co-culture of HeLa-CD4+ cells and CHO-WT cells; conditions: for antiviral entry activity: HIV entry / syncytium formation
Source text: Tieghemella heckelii (Sapotaceae, Th) is a large tree found in the West African rain forest. In January and February, the plant blossoms and develops ovoid fruits of 8 cm length and 7 cm diameter, which ripen in July-October. Many parts of the tree are used in traditional medicine. We have used a series of high-speed counter-current chromatography (HSCC), viral entry and infectivity assay and HIV-based cell-cell fusion assay to isolate specific HIV viral entry inhibitors from the ovoid fruits of the plants. The procedures for the isolation have been described in detail (4). Two pure saponin compounds, Arganine C (Rev 1) and Tieghemella (Gen. 1) have been isolated with the yield of 0.48% and 0.6% respectively.
In HIV infection, syncytia are the result of viral attachment and cell membrane fusion which create giant multi-nucleated cells consisting of both infected and uninfected cells. Rev. 1 and Gen. […] Rev-1 and Gen-1 are structurally identical except for one attached group at C23 (FIG. 1A). C23 glucose for Rev-1 and glucuronic acid for Gen-1 (4, 5). Their antiviral activity requires the C28 sugar chain. […] The four sugars in the substituent at the C28 position are L-arabinose, L-rhamnose, D-xylose and L-rhamnose (FIG. 1B).

red blood cells = assay: Hemolysis, release of hemoglobin from red blood cells; type: cell-based
Description: As such, Rev-1 and Gen-1 are both hemolytic, a property which may restrict potential use in therapy. To see whether modification of C28 sugar side chain can abolish such hemolytic effect, we acetylated the hydroxyl group of the C28 sugars with acetic anhydride. Briefly, 10 ml of pyridine and 5 ml acetic anhydride were added to a solution of pure tieghemella (Gen-1, 100 mg) in 5 ml methanol at 0° C. The solution mixture was allowed to reflux for […]. The resultant mixture was extracted with water at 20° C. as described in reference 9. The aqueous solution was washed several times with dichloromethane. The water filtrate was dried under the hood to afford oAc-Gen-1; (160 mg). We compared the hemolytic effect of Gen-1 and oAc-Gen-1 by measuring the release of hemoglobin from red blood cells in the presence of Gen.1 or o-Ac Gen.

[1] = tested on: Sp1 binding sites of the HIV long terminal repeat (LTR); conditions: in vitro; cited from earlier work
HIV transcription = conditions: cited from earlier work
HSV-2 = assay: Mouse vaginal model of HSV-2 infection; type: in vivo, female CF-1 mice; conditions: 10 mM
Source text: P4N was also found to be quite effective.

[2] = biological target: deletion mutant HIV-1 integrase (IN^50-212) (Human immunodeficiency virus type 1 group M subtype B, UniProt P04585); assay: Disintegration assay; type: biochemical; conditions: IN^50-212 core domain; equal efficacy with wild type
Description: (§1) To determine whether M522 and M532 are acting against the catalytic core domain specifically, disintegration assay was tested using deletion mutant IN containing only the core domain of HIV integrase. Such deletion mutant is defective for normal integration, but it is capable of catalyzing a reversal of the forward reaction, termed “disintegration”. The disintegration reaction can be assayed by using a deletion mutant HIV-1 integrase (IN^50-212) which lacks both the amino terminal zinc binding and the carboxyl terminal DNA binding domains but remains active in this assay, whereas such truncated IN loses activity in the 3′-processing and joining (strand transfer) assays. So, disintegration assay can be used to probe the site of drug-enzyme binding.

[3] = biological target: wild type HIV-1 integrase (Human immunodeficiency virus type 1 group M subtype B, UniProt P04585); assay: Disintegration assay; type: biochemical; conditions: equal efficacy with deletion mutant
Description: as §1

H9 cells = type: cell-based; conditions: 192 h
Description: A series of drug concentrations ranging from 1.25 μg/ml to 160 μg/ml were used for testing the cytotoxicity of M522 and M532 in H9 cells, using the MTT assay to determine the viability of H9 cells in culture. […] In fact, the drug-protected, HIV-infected H9 cells appeared to be morphologically identical to the uninfected control cells (6).
(§2) Similarly, PBMC cells were isolated from a healthy blood sample and these cells were stimulated by PHA and IL-2. PBMC (5×10^6/ml) were infected with HIV-1RTMF. The cells were treated with three combinations of drugs, M522, Gen-1 and G4N. Fresh media and drugs were added after 4 days with drug concentrations 0, 1.25, 2.5, 5, 10, 20, 40 and 80 μM. The inhibition for HIV-1 by these combinations of drugs was also examined by using p24 assay after 8 days. […] In comparison, cytotoxicity for the three drugs combined to H9 cells was also analyzed using an MTT assay.

[4] = tested on: HIV-1RTMF (AZT-resistant virus); assay: HIV replication in infected H9 cells, HIV/p24 monoclonal antibody assay; type: cell-based; conditions: H9 cells infected with HIV-1RTMF in the presence of drug
Description: The inhibitory effect of M522 and M532 against HIV replication was further examined using 5 different strains of HIV-1, drug resistant and primary isolates in the presence of a variety of drug concentrations in infected H9 cells.
A series of drug concentrations ranging from 1.25 μg/ml to 160 μg/ml were used for testing the cytotoxicity of M522 and M532 in H9 cells, using the MTT assay to determine the viability of H9 cells in culture.

reverse transcriptase = biological target: T1, reverse transcriptase (Human immunodeficiency virus type 1 group M subtype B, UniProt P04585); assay: Reverse transcriptase activity and viral DNA levels in infected cells; type: cell-based, HIV
T1 construct: endogenous in cells; host or cells: HIV-infected cells (H9 cells named in the same paragraph)
Source text: (§3) a. Salvia genus of Labiaceae family contains approximately 1000 species. 78 of these are distributed in different regions in China. […] An INi search was established based on an assay-guided purification procedure utilizing different concentrations of methanol, propanol, a two-layer extraction system (low salt water/butanol), and a high resolution inverted phase HPLC (Sperisorb OD S-2).

HIV-1 = assay: Acute HIV-1 infection of H9 cells; type: cell-based
Source text: as §3

HIV-1 integrase = HIV-1 integrase (Human immunodeficiency virus type 1 group M subtype B, UniProt P04585); assay: HIV-1 integrase catalytic activity of 3'-joining to the target DNA; type: biochemical; conditions: read-out: IC50, 3′-joining to the target DNA
Source text: as §3

HIV = HIV entry in H9 cells; type: cell-based; conditions: compound by itself
Source text: as §3

HIV-1RTMF = assay: Drug combination study in H9 cells infected with HIV-1RTMF, p24 assay; type: cell-based; conditions: Human immunodeficiency virus 1, H9, 192 h
Source text: We tested drug combinations against two different cells infected with laboratory strain of HIV-1 RTMF. For these drug combinational studies, both the H9 cells and human PBMC have been used. We first tested how our inhibitors affect one specific strain of HIV which is resistant to drug against RT (HIV-1RTMF). Briefly H9 (1×10^5/ml) were infected with HIV-1RTMF strain with a multiplicity of infection of 0.1. These cells were further tested with three drugs, M522, Gen-1 and G4N, either in combination or separately (8, 10, 21B). After 4-day incubation at 37° C., H9 cells were subcultured with fresh culture medium containing appropriate concentrations 0, 1.25, 2.5, 5, 10, 20, 40 and 80 μM of each of the drugs, or of a combination of all three of the drugs, each at the indicated concentration. The inhibition for HIV-1 by these combinations of drugs was examined using p24 assay after 8 days.
as §2

For `C[C@@H]1O[C@@H](O[C@@H]2[C@@H](O)[C@H](O[C@@H]3[C@@H](O)[C@@H](O)[C@H](O[C@H]4[C@H](OC(=O)[C@]56CCC(C)(C)C[C@H]5C5=CC[C@@H]7[C@@]8(C)C[C@H](O)[C@H](O[C@@H]9O[C@H](CO)[C@@H](O)[C@H](O)[C@H]9O)[C@@](C)(CO)[C@@H]8[C@H](O)C[C@@]7(C)[C@]5(C)C[C@H]6O)OC[C@H](O)[C@@H]4O)O[C@H]3C)OC[C@H]2O)[C@H](O)[C@H](O)[C@H]1O` [Rev.1, arganine C], the inhibition of attachment (HIV particles) was “dose-dependent inhibition of attachment”, the antiviral entry activity (wild type HIV-1 envelope) was “strongly inhibited” and the IC50 (wild type HIV-1 envelope; HIV-based cell-cell fusion assay (FIG. 1), read-out: IC50) was 2.8 µM. The hemolytic effect (red blood cells; effective drug concentrations that blocked viral entry) was “hemolytic”.

For `CC(Cc1ccc(O)c(O)c1)C(C)Cc1ccc(O)c(O)c1` (stereo not shown) [NDGA, nordihydroguaiaretic acid, reference compound], the “effect on Sp1 binding” value [1] is given as “no effect on Sp1 binding” and the “inhibition of HIV transcription” value (HIV transcription) is given as “does not inhibit HIV transcription”.

In the case of `C[C@H](Cc1ccc(OCCN2CCCCC2)c(OCCN2CCCCC2)c1)[C@@H](C)Cc1ccc(OCCN2CCCCC2)c(OCCN2CCCCC2)c1` [P4N], the “effect on Sp1 binding” value [1] is listed as “disrupt Sp1 transcription factor binding”, the average scale (HSV-2) is listed as 0.19 and the animals infected (HSV-2; 10 mice per group) is listed as 2 of 10.

In the case of `O=C(/C=C/c1ccc(O)c2c1[C@H](C(=O)O[C@H](Cc1ccc(O)c(O)c1)C(=O)O)[C@@H](c1ccc(O)c(O)c1)O2)O[C@H](Cc1ccc(O)c(O)c1)C(=O)O` [M532, lithospermic acid B], the inhibition of disintegration [2] is reported as “inhibited”, the inhibition of disintegration [3] is reported as “inhibited” and the “CC100 (highest concentration tested, cells remained viable)” value (H9 cells) is reported as 160 µg/mL. The syncytia formation [4] was “syncytia formation was prevented”, the “levels of intracellular strong stop and full-length viral DNA” value (reverse transcriptase; following drug treatment) was “remained unchanged” and the “inhibition of reverse transcriptase activity” value (reverse transcriptase; infected cells) was “no inhibition of reverse transcriptase activity”. For the same compound, the IC50 (HIV-1) was 6.9 µM, the IC50 (HIV-1 integrase) was 370 nM and the “prevention of HIV entry” value (HIV) was “Neither M522 nor M532 by itself prevents HIV entry”.

With `C[C@@H]1O[C@@H](O[C@@H]2[C@@H](O)[C@H](O[C@@H]3[C@@H](O)[C@@H](O)[C@H](O[C@H]4[C@H](OC(=O)[C@]56CCC(C)(C)C[C@H]5C5=CC[C@@H]7[C@@]8(C)C[C@H](O)[C@H](O[C@@H]9O[C@H](C(=O)O)[C@@H](O)[C@H](O)[C@H]9O)[C@@](C)(CO)[C@@H]8[C@H](O)C[C@@]7(C)[C@]5(C)C[C@H]6O)OC[C@H](O)[C@@H]4O)O[C@H]3C)OC[C@H]2O)[C@H](O)[C@H](O)[C@H]1O` [Gen-1, Tieghemelin] the inhibition of attachment (HIV particles) was “dose-dependent inhibition of attachment”, the IC50 (HIV-1RTMF) was 40 µM and the antiviral entry activity (wild type HIV-1 envelope) was “less potent”. For the same compound, the IC50 (wild type HIV-1 envelope; Human immunodeficiency virus 1) was 17 µM, the hemolytic effect (red blood cells) was “hemolytic” and the “red blood cells lysed” value (red blood cells; 57 μM) was 50%.

In the case of `CC1(C)CC[C@]2(C(=O)O)[C@H](O)C[C@]3(C)C(=CC[C@@H]4[C@@]5(C)C[C@H](O)[C@H](O[C@@H]6O[C@H](C(=O)O)[C@@H](O)[C@H](O)[C@H]6O)[C@@](C)(CO)[C@@H]5[C@H](O)C[C@]43C)[C@@H]2C1` [A-GEN, 16α-hydroxyprotobassic acid 3-0-β-D-glucuronopyranoside], the inhibition of attachment (HIV particles) is reported as “totally devoid of activity” and the antiviral entry activity (wild type HIV-1 envelope) is reported as “total loss of antiviral entry activity”.

For `COc1cc(C[C@H](C)[C@H](C)Cc2ccc(O)c(O)c2)ccc1O` [3′-O-methyl NDGA], the “inhibition of HIV transcription” value (HIV transcription) is given as “specifically block HIV transcription”.

With `CC1(C)CC[C@]2(C(=O)O)[C@H](O)C[C@]3(C)C(=CC[C@@H]4[C@@]5(C)C[C@H](O)[C@H](O[C@@H]6O[C@H](CO)[C@@H](O)[C@H](O)[C@H]6O)[C@@](C)(CO)[C@@H]5[C@H](O)C[C@]43C)[C@@H]2C1` [A-REV, 16α-hydroxyprotobassic 3-0-β-D-glycopyransoide] the antiviral entry activity (wild type HIV-1 envelope) was “total loss of antiviral entry activity”.
